Like-named read-outs stand apart in the source and are kept apart here. Non-standard residues stand in square brackets, D forms with d. *: point of attachment. Phe(F5) = N[C@@H](Cc1c(F)c(F)c(F)c(F)c1F)C(=O)O; Phe(3-Cl) = N[C@@H](Cc1cccc(Cl)c1)C(=O)O; ACC = NC(=O)Cc1cc(=O)oc2cc(N*)ccc12; hArg = N=C(N)NCCCC[C@H](N)C(=O)O; ClZ = O=C(OCc1ccccc1Cl)*; Orn = NCCC[C@H](N)C(=O)O; Dab = NCC[C@H](N)C(=O)O; Dap = NC[C@H](N)C(=O)O; Bn = c1ccc(C*)cc1
What was measured:
Format in all cases: biochemical
[1] = target: T1, cathepsin K (Homo sapiens, UniProt P43235); test: Kinetic parameters of ACC substrates with cathepsin K; settings: for kcat/KM Cath-K: Fig. 5B, pH 5.5, 37 °C, cathepsin K 5–20 nM, triplicate, SD below 15%
T1 construct: made in house
T1 sequence (P43235 115-329): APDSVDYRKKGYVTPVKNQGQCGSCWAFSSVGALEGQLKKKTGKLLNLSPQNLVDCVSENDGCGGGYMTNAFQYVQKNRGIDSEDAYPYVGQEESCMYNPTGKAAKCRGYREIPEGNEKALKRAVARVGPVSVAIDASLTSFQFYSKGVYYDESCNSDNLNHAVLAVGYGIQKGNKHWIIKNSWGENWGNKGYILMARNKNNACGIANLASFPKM
Description: (§1) All kinetic experiments were performed using fMax (Molecular Devices) and CLARIOStar (BMG LABTECH) spectrofluorimeters operating in kinetic mode using 96-well plates. ACC-labeled substrates were screened using 355 nm and 460 nm wavelengths (excitation and emission, respectively). […] The buffer was prepared at room temperature and the enzyme kinetic studies were performed at 37 °C.
(§2) Classic substrate velocity plots were analyzed according to Michaelis–Menten kinetics and a detailed protocol for the determination of kinetic parameters for ACC-tagged substrates is found elsewhere.[56] […] Experiments were repeated at least three times and results are presented as an average. The SDs were below 15%.

[2] = target: T2, cathepsin S (Homo sapiens, UniProt P25774); test: Kinetic parameters of ACC substrates with cathepsin S; settings: for kcat/KM Cath-S: Fig. 5B, pH 5.5, 37 °C, cathepsin S 5–20 nM, triplicate, SD below 15%
T2 construct: made in house
T2 sequence (P25774 115-331): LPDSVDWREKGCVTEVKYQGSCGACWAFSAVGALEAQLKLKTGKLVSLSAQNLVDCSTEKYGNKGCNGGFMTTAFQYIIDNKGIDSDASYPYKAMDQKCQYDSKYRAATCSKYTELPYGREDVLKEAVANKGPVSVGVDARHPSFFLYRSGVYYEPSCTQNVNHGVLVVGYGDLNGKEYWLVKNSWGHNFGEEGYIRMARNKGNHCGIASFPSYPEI
Description: as §1, §2

[3] = target: T3, cathepsin B (Homo sapiens, UniProt P07858); test: Kinetic parameters of ACC substrates with cathepsin B; settings: for kcat/KM Cath-B: Fig. 5B, pH 5.5, 37 °C, cathepsin B 4–15 nM, triplicate, SD below 15%
T3 construct: made in house
Description: as §1, §2

[4] = target: T4, cathepsin L (Homo sapiens, UniProt P07711); test: Kinetic parameters of ACC substrates with cathepsin L; settings: for kcat/KM Cath-L: Fig. 5B, triplicate
T4 construct: made in house
T4 sequence (P07711 114-333): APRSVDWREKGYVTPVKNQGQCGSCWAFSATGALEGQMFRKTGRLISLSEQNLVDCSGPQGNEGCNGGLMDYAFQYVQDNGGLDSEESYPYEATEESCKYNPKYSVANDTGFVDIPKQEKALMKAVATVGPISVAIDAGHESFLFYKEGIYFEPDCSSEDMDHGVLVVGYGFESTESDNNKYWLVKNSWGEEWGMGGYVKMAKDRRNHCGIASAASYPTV
Description: as §1, §2

[5] = target: T5, cathepsin V (Homo sapiens, UniProt O60911); test: Kinetic parameters of ACC substrates with cathepsin V; settings: for kcat/KM Cath-V: Fig. 5B, pH 5.5, 37 °C, cathepsin V 10–20 nM, triplicate, SD below 15%
T5 construct: made in house
T5 sequence (O60911 114-334): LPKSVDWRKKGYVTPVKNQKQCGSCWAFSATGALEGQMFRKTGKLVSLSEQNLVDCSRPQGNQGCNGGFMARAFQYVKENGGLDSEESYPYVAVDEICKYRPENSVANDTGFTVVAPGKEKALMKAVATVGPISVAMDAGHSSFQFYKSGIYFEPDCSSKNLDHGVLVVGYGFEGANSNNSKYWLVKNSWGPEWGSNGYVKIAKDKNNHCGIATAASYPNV
Description: as §1, §2

[6] = pH 5.5, 37 °C, cathepsin L 0.1–0.5 nM, SD below 15%
[7] = Fig. 4B, ACC substrates, 100 mM sodium acetate, 100 mM NaCl, 10 mM DTT, 1 mM EDTA, pH 5.5, 37 °C, cathepsin L 0.1–0.5 nM, average of at least three, SD below 15%
[8] = Table S2, cathepsin L, four independent experiments, S.D. below 15%
[9] = Table S2, cathepsin L, four independent experiments, S.D. below 15%, read-out: KM
[10] = Table S7, four independent experiments, S.D. below 15%

## Ac-H[dL][Phe(F5)]R-{ACC} (SMILES CC(=O)N[C@@H](Cc1c[nH]cn1)C(=O)N[C@H](CC(C)C)C(=O)N[C@@H](Cc1c(F)c(F)c(F)c(F)c1F)C(=O)N[C@@H](CCCNC(=N)N)C(=O)Nc1ccc2c(CC(N)=O)cc(=O)oc2c1)
[1]
  kcat/KM Cath-K: < 10 M⁻¹ s⁻¹
[2]
  kcat/KM Cath-S: < 10 M⁻¹ s⁻¹
[3]
  kcat/KM Cath-B: 135 M⁻¹ s⁻¹
[4]; [6]
  kcat/KM Cath-L: 405,900 M^-1s^-1
[5]
  kcat/KM Cath-V: 353 M⁻¹ s⁻¹

## Ac-H[dV][Phe(F5)]L-{ACC} (SMILES CC(=O)N[C@@H](Cc1c[nH]cn1)C(=O)N[C@@H](C(=O)N[C@@H](Cc1c(F)c(F)c(F)c(F)c1F)C(=O)N[C@@H](CC(C)C)C(=O)Nc1ccc2c(CC(N)=O)cc(=O)oc2c1)C(C)C)
[1]
  kcat/KM Cath-K: 646 M⁻¹ s⁻¹
[2]
  kcat/KM Cath-S: 912 M⁻¹ s⁻¹
[3]
  kcat/KM Cath-B: 684 M⁻¹ s⁻¹
[4]; [6]
  kcat/KM Cath-L: 135,600 M^-1s^-1
[5]
  kcat/KM Cath-V: 325 M⁻¹ s⁻¹

## Ac-H[dV][Phe(F5)]K(ClZ)-{ACC} (SMILES CC(=O)N[C@@H](Cc1c[nH]cn1)C(=O)N[C@@H](C(=O)N[C@@H](Cc1c(F)c(F)c(F)c(F)c1F)C(=O)N[C@@H](CCCCNC(=O)OCc1ccccc1Cl)C(=O)Nc1ccc2c(CC(N)=O)cc(=O)oc2c1)C(C)C)
[1]
  kcat/KM Cath-K: 361 M⁻¹ s⁻¹
[2]
  kcat/KM Cath-S: < 10 M⁻¹ s⁻¹
[3]
  kcat/KM Cath-B: 1,320 M^-1s^-1
[4]; [6]
  kcat/KM Cath-L: 686,700 M^-1s^-1
[5]
  kcat/KM Cath-V: 329 M⁻¹ s⁻¹

## Ac-R[dV][Phe(F5)]R-{ACC} (SMILES CC(=O)N[C@@H](CCCNC(=N)N)C(=O)N[C@@H](C(=O)N[C@@H](Cc1c(F)c(F)c(F)c(F)c1F)C(=O)N[C@@H](CCCNC(=N)N)C(=O)Nc1ccc2c(CC(N)=O)cc(=O)oc2c1)C(C)C)
[1]
  kcat/KM Cath-K: < 10 M⁻¹ s⁻¹
[2]
  kcat/KM Cath-S: < 10 M⁻¹ s⁻¹
[3]
  kcat/KM Cath-B: 101 M⁻¹ s⁻¹
[4]; [6]
  kcat/KM Cath-L: 387,300 M^-1s^-1
[5]
  kcat/KM Cath-V: 333 M⁻¹ s⁻¹

## Ac-[hArg][dV][Phe(F5)]R-{ACC} (SMILES CC(=O)N[C@@H](CCCCNC(=N)N)C(=O)N[C@@H](C(=O)N[C@@H](Cc1c(F)c(F)c(F)c(F)c1F)C(=O)N[C@@H](CCCNC(=N)N)C(=O)Nc1ccc2c(CC(N)=O)cc(=O)oc2c1)C(C)C)
[1]
  kcat/KM Cath-K: 96 M⁻¹ s⁻¹
[2]
  kcat/KM Cath-S: < 10 M⁻¹ s⁻¹
[3]
  kcat/KM Cath-B: 242 M⁻¹ s⁻¹
[4]; [6]
  kcat/KM Cath-L: 454,800 M^-1s^-1
[5]
  kcat/KM Cath-V: 647 M⁻¹ s⁻¹

## Ac-[Dab]R[Phe(3-Cl)]R-{ACC} (SMILES CC(=O)N[C@@H](CCN)C(=O)N[C@@H](CCCNC(=N)N)C(=O)N[C@@H](Cc1cccc(Cl)c1)C(=O)N[C@@H](CCCNC(=N)N)C(=O)Nc1ccc2c(CC(N)=O)cc(=O)oc2c1)
[4]; [7]
  kcat/KM: 31,960,000 M^-1s^-1

## Ac-Dap-Orn-Phe(3-Cl)-Nle(OBzl)-ACC
[4]; [7]
  kcat/KM: 47,400,000 M^-1s^-1
[4]; [8]
  kcat: 124 s⁻¹
  kcat/KM: 47,400,000 M-1s-1
[4]; [9]
  Km: 2.63 µM
[4]; kcat/KM compared with reference substrate
  hydrolysis by cathepsin L relative to Ac-His-Arg-Phe-Arg-ACC substrate: ~4 times

## Ac-H[dT][Phe(F5)]R-{ACC} (SMILES CC(=O)N[C@@H](Cc1c[nH]cn1)C(=O)N[C@@H](C(=O)N[C@@H](Cc1c(F)c(F)c(F)c(F)c1F)C(=O)N[C@@H](CCCNC(=N)N)C(=O)Nc1ccc2c(CC(N)=O)cc(=O)oc2c1)[C@H](C)O)
[1]
  kcat/KM Cath-K: < 10 M⁻¹ s⁻¹
[1]; [10]
  kcat/KM Cat K: < 10 M⁻¹ s⁻¹
[2]
  kcat/KM Cath-S: < 10 M⁻¹ s⁻¹
[2]; [10]
  kcat/KM Cat S: < 10 M⁻¹ s⁻¹
[3]
  kcat/KM Cath-B: 94 M⁻¹ s⁻¹
[3]; [10]
  kcat Cat B: 0.00673 s⁻¹
  kcat/KM Cat B: 94 M⁻¹ s⁻¹
[3]; Table S7, four independent experiments, S.D. below 15%, read-out: KM Cat B
  Km: 71.5 µM
[4]; [6]
  kcat/KM Cath-L: 729,200 M^-1s^-1
[4]; [10]
  kcat Cat L: 38.6 s⁻¹
[4]; Table S7, four independent experiments, S.D. below 15%, read-out: KM Cat L
  Km: 53.1 µM
[5]
  kcat/KM Cath-V: 286 M⁻¹ s⁻¹
[5]; [10]
  kcat Cat V: 0.0178 s⁻¹
  kcat/KM Cat V: 286 M⁻¹ s⁻¹
[5]; Table S7, four independent experiments, S.D. below 15%, read-out: KM Cat V
  Km: 61.4 µM

## Ac-[Dap][Orn][Phe(3-Cl)]C(Bn)-{ACC} (SMILES CC(=O)N[C@@H](CN)C(=O)N[C@@H](CCCN)C(=O)N[C@@H](Cc1cccc(Cl)c1)C(=O)N[C@@H](CSCc1ccccc1)C(=O)Nc1ccc2c(CC(N)=O)cc(=O)oc2c1)
[4]; [7]
  kcat/KM: 45,420,000 M^-1s^-1
[4]; [8]
  kcat: 191 s⁻¹
  kcat/KM: 45,420,000 M-1s-1
[4]; [9]
  Km: 4.28 µM

## Ac-[Dap][Orn][Phe(3-Cl)]K(ClZ)-{ACC} (SMILES CC(=O)N[C@@H](CN)C(=O)N[C@@H](CCCN)C(=O)N[C@@H](Cc1cccc(Cl)c1)C(=O)N[C@@H](CCCCNC(=O)OCc1ccccc1Cl)C(=O)Nc1ccc2c(CC(N)=O)cc(=O)oc2c1)
[4]; [7]
  kcat/KM: 29,280,000 M^-1s^-1
[4]; [8]
  kcat: 86.7 s⁻¹
  kcat/KM: 29,280,000 M-1s-1
[4]; [9]
  Km: 2.98 µM
